Results from patent US20240317758A1 (Halia Therapeutics, Inc., priority 2021, published 2024).
pIC50: −log10 of the molar value.

Experiments:
[1] = target: T1, full-length recombinant human NEK7 (Homo sapiens, UniProt Q8TDX7); test: NEK7 enzymatic assay; type: biochemical; conditions: recombinant human NEK7, casein substrate, radiolabelled ATP
T1 construct: full-length recombinant human NEK7; GST (N); purchased SignalChem NO9-10G; host or cells: Sf9 insect cells (baculovirus)
Procedure, shortened: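 Full-length GST-tagged human NEK7 from Sf9 cells (assay concentration 70 nM) was used with casein (assay concentration 20 μM) in Hepes pH 7.5 buffer, 1% DMSO, and compound (3-fold dilutions, 10 μM to 0.5 nM) was preincubated 20 min at room temperature. Radiolabelled ATP was added for 2 h, phosphorylation was read on P81 paper, and IC50 was fitted from % activity remaining versus vehicle.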

IL-1β release = IL-1β release assay (THP-1 cells, PMA, LPS, nigericin); type: cell-based; conditions: Homo sapiens, LPS 250 ng/mL, nigericin 20 μM, cleaved IL-1β in media
Procedure: Approximately 1.5 million THP-1 cells were plated in each well of a 6-well TC plate and incubated with 40 nM PMA in RPMI (10% FBS, 1% Penstrep) for 24 hours. The media was then removed and cells were rested in RPMI (10% FBS, 1% Penstrep) for 24 hours after which time the media was removed and cells were pre-treated for 2 hours with various concentrations of compounds of interest (typically serial 3-fold dilution in RPMI+5% FBS, concentrations ranging from 1 μM to 0.5 nM) in RPMI (5% FBS). The media was again removed and cells were incubated with 250 ng/mL LPS and compounds of interest (concentrations as above) in RMPI (5% FBS) for 2 hours. The media was removed for a last time and cells were incubated with 20 μM nigericin and compounds of interest (concentrations as above) in Opti-MEM for 30 minutes. Cell media was then collected and the amount of cleaved IL-1β was determined using a JESS instrument (Protein Simple) and standard protocols. Cleaved Il-1β antibody was obtained from Cell Signaling (catalogue #83186S) and was used at 1:20 dilution in antibody diluent 2. Protein Simple 1× anti-Rabbit HRP secondary antibody was used along with Protein Simple luminol and peroxide for chemiluminescent detection. Primary antibody incubation time was increased from 30 minutes to 60 minutes.

T1 sequence (Q8TDX7 whole entry): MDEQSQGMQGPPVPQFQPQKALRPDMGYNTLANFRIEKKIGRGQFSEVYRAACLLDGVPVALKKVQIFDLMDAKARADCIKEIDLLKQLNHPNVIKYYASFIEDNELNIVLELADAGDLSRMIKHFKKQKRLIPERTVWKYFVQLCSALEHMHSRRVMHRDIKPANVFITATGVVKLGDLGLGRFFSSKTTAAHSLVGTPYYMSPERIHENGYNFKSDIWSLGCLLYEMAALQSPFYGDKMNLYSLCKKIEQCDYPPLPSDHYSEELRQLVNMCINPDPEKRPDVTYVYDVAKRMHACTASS

| SMILES | pIC50 [1] | pIC50 (IL-1β release) |
| --- | --- | --- |
| CN1CCN(Cc2ccc(NC(=O)Nc3ccc(-c4cn(C5CC5)c5ncnc(N)c45)cc3F)cc2OC(F)(F)F)CC1 [Example I-78, 1-(4-(4-amino-7-cyclopropyl-7H-pyrrolo[2,3-d]pyrimidin-5-yl)-2-fluorophenyl)-3-(4-((4-methylpiperazin-1-yl)methyl)-3-(trifluoromethoxy)phenyl)urea] | 6.30 to 7.00 | 6.60 to 7.30 |
| Nc1ncnc2c1c(-c1ccc(NC(=O)Nc3ccc(CN4CCN(CCO)CC4)c(C(F)(F)F)c3)c(F)c1)cn2C1CC1 [Example I-42, 1-(4-(4-amino-7-cyclopropyl-7H-pyrrolo[2,3-d]pyrimidin-5-yl)-2-fluorophenyl)-3-(4-((4-(2-hydroxyethyl)piperazin-1-yl)methyl)-3-(trifluoromethyl)phenyl)urea] | > 7.00 | > 7.30 |
| CN1CCN(C2CC(F)(F)c3cc(NC(=O)Nc4ccc(-c5nn(C6CC6)c6ncnc(N)c56)cc4F)ccc32)CC1 (stereo not drawn) [Example I-94, 1-(4-(4-amino-1-cyclopropyl-1H-pyrazolo[3,4-d]pyrimidin-3-yl)-2-fluorophenyl)-3-(3,3-difluoro-1-(4-methylpiperazin-1-yl)-2,3-dihydro-1H-inden-5-yl)urea] | > 7.00 | 6.60 to 7.30 |
| CN1CCN(C(=O)c2ccc(NC(=O)Nc3ccc(-c4cn(C5CC5)c5ncnc(N)c45)cc3F)cc2C(F)(F)F)CC1 [Example I-10] | 6.30 to 7.00 | 6.60 to 7.30 |

The next lines start with the values.

| pIC50 [1] | pIC50 (IL-1β release) | SMILES |
| --- | --- | --- |
| > 7.00 | 6.60 to 7.30 | CN1CCN(Cc2ccc(NC(=O)Nc3ccc(-c4nn(CCO)c5ncnc(N)c45)cc3F)cc2C(F)(F)F)CC1 [Example I-76, 1-(4-(4-amino-1-(2-hydroxyethyl)-1H-pyrazolo[3,4-d]pyrimidin-3-yl)-2-fluorophenyl)-3-(4-((4-methylpiperazin-1-yl)methyl)-3-(trifluoromethyl)phenyl)urea] |
| > 7.00 | < 6.00 | Nc1ncnc2c1c(-c1ccc(NC(=O)Nc3ccc(CN4CCN(CCS(=O)(=O)O)CC4)c(C(F)(F)F)c3)c(F)c1)cn2C1CC1 [Example I-100, 2-(4-(4-(3-(4-(4-amino-7-cyclopropyl-7H-pyrrolo[2,3-d]pyrimidin-5-yl)-2-fluorophenyl)ureido)-2-(trifluoromethyl)benzyl)piperazin-1-yl)ethane-1-sulfonic acid] |
